In patent US20220298143A1, “Pyrazole Derivatives for FGFR Inhibitor and Preparation Method Thereof” (Etern Biopharma (Shanghai) Co., Ltd., priority 2019, published 2022) one finds IC50, Cmax and AUC data, which are given here for 15 compounds.

One data set deals with Hep3B cells. The experiment in a line: Human liver cancer cell Hep3B survival test (CellTiter-Glo). The format is cell-based. Conditions: 72 hours compound treatment. Here is the method: Human Liver Cancer Cell Hep3B Survival Test
The human liver cancer Hep3B cell line was from ATCC. The cells were cultured in DMEM liquid medium, and fetal bovine serum (10% FBS) and penicillin-streptomycin (100,000 U/L) were added. The cells were kept at 37° C., 95% humidity and 5% carbon dioxide in the culture medium. During the experiment, Hep3B cells were seeded in a 96-well plate at a density of 3000 cells per well. The volume of the cell suspension was 100 μL per well, and the cells were cultured overnight to attach the cells. The next day, each compound was diluted with DMSO in a three-fold gradient, and 1 μL of the solution of the compound in DMSO was added to the cell culture medium. At the same time, 1 μL of DMSO was used as a control. Three parallel sub-wells were set for each concentration of each compound. Then the cells were placed in a 37° C. incubator. After 72 hours of continuous compound treatment, 50 μL CellTiter-Glo (Promega, Madison Wis.) was added to the cell culture medium. The relative luminescence unit (RLU) of each well was determined and the cell survival rate and compound activity (IC50) were calculated.
On the technique in general: Cellular ATP, detected with luciferase, serves as a proxy for viable cell number.

A further data set deals with T1, FGFR1 (Homo sapiens, UniProt P11362).
T1 construct: purchased Cama (sic; Carna) 08-133
The experiment in a line: Enzymatic activity test of FGFR inhibitor, Caliper model. The format is biochemical.

The target of a further data set is FGFR2 (Homo sapiens, UniProt P21802). The description is as above. The data set is classed as biochemical. As to conditions: kinase pre-incubation 10 minutes.
Data set [1] is described as follows: Compound pharmacokinetic experiment, single intragastric administration. The data set is classed as in vivo. As to conditions: mouse, plasma, male mice, oral dosage 15 mg/Kg; for Cmax: read-out: Peak plasma concentration Cmax; for AUC: read-out: Plasma exposure AUC. As to the method: Compound Pharmacokinetic Experiment
The pharmacokinetics of the compounds of the present disclosure was determined. This application used the following methods to determine the pharmacokinetic parameters of the compounds.
For the healthy male adult mice used in the study, each group of animals was given a single intragastric administration of 5-100 mg/Kg. Fasting was from 10 hours before administration to 4 hours after administration. Blood was collected at different time points after administration, and the plasma content of the compound was determined (LC-MS/MS). The plasma concentration-time relationship was analyzed with professional software (winnonlin) to calculate the pharmacokinetic parameters of the compound.

In another data set the target is FGFR3 (Homo sapiens, UniProt P22607). The experiment in a line: Enzymatic activity test of FGFR inhibitor, Caliper model. The format is biochemical. As to conditions: kinase pre-incubation 10 minutes.
A further data set addresses T2, FGFR4 (Homo sapiens, UniProt P22455).
T2 construct: purchased Invitrogen PR4380A
The data set is described as above. The data set is classed as biochemical.

Where [2] appears, read: Caliper, kinase pre-incubation 10 minutes, read-out: FGFR1.
The mark [3] stands for this setting: Caliper, kinase pre-incubation 10 minutes, read-out: FGFR4.

The structures appear in SMILES notation. Read-outs that look alike come from different tables or passages of the source.

T2 sequence (P22455 22-802): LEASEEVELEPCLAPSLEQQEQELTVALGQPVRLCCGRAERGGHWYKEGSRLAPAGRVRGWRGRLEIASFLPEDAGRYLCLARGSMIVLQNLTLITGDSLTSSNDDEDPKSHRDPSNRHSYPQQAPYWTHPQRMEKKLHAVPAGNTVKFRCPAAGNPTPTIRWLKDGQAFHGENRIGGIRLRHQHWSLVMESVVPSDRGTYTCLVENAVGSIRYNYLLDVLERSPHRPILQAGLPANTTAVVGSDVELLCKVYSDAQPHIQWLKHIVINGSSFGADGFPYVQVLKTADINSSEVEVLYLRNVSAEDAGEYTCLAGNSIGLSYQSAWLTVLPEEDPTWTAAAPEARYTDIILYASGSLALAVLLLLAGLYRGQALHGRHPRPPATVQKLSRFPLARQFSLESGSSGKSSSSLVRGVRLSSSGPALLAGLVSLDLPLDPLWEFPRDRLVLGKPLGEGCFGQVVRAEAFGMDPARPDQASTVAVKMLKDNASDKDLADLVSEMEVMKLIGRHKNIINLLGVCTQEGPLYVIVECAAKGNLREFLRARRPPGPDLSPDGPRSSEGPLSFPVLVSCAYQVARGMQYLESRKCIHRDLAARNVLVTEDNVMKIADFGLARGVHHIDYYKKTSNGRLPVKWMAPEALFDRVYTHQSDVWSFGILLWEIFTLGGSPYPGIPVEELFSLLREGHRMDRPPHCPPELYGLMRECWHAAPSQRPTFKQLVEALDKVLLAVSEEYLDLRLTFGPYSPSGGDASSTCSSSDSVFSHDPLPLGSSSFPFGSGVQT
Sequence of FGFR3 (P22607 23-806): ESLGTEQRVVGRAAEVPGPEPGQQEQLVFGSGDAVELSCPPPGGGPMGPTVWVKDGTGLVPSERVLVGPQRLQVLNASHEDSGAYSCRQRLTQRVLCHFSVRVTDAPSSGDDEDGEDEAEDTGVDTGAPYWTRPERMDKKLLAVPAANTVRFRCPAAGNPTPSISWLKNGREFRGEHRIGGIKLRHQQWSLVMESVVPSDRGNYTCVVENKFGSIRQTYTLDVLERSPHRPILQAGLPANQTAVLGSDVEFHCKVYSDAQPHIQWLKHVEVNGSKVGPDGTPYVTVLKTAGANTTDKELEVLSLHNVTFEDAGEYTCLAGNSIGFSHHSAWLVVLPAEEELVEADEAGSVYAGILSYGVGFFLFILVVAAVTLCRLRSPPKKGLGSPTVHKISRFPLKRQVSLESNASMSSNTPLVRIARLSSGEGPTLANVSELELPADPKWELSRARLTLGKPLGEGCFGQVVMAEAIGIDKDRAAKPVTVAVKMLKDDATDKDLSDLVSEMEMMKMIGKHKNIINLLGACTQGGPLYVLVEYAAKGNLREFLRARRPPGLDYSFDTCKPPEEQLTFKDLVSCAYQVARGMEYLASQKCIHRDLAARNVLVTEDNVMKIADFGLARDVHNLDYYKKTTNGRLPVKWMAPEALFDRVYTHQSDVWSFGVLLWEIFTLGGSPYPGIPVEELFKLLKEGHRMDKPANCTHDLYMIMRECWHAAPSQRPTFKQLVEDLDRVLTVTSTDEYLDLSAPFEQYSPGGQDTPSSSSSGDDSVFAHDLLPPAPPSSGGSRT
T1 sequence (P11362 22-822): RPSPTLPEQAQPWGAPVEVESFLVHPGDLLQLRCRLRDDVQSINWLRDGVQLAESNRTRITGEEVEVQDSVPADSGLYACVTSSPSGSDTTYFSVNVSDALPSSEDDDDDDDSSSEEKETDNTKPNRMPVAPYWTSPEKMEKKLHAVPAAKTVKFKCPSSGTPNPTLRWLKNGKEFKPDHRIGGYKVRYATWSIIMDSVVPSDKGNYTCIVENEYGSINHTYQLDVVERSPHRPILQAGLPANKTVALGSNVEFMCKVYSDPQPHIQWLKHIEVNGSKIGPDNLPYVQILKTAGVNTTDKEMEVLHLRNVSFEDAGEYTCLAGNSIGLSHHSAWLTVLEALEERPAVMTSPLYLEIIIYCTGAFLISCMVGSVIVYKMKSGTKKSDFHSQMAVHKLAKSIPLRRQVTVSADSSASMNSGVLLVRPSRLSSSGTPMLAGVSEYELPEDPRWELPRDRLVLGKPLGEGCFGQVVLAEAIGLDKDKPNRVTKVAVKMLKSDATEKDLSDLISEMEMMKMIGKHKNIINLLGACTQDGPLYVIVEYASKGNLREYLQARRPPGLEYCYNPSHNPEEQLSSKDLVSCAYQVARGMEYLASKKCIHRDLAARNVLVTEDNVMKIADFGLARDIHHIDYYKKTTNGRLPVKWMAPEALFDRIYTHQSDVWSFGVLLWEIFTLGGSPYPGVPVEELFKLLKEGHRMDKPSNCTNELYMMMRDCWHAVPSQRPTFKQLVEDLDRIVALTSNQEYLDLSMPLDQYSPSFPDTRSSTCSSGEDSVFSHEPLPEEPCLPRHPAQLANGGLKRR
Sequence of FGFR2 (P21802 22-821): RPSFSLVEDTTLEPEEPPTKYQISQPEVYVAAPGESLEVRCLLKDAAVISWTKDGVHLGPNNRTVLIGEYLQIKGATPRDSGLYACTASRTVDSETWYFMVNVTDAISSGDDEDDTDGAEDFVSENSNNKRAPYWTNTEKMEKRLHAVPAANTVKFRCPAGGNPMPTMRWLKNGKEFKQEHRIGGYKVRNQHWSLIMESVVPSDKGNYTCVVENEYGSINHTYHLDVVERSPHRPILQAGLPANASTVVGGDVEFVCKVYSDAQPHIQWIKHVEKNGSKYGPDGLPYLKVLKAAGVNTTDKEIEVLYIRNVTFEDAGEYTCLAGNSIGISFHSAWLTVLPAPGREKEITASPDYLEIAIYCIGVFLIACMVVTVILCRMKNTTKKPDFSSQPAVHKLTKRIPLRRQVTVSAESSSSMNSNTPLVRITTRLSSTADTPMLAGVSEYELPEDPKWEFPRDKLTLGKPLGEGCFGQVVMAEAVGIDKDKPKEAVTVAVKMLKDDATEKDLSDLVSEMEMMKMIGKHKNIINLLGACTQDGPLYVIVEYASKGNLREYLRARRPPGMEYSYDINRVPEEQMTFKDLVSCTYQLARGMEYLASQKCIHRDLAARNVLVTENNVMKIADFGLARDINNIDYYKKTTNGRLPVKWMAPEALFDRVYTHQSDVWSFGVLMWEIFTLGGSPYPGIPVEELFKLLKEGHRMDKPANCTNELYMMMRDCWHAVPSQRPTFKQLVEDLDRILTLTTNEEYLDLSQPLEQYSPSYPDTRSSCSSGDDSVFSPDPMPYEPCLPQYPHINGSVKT
Method for FGFR1: (§1) Enzymatic Activity Test of FGFR Inhibitor-Caliper Model
(§2) The specific operation steps were as follows:
(§3) The compound was first serially diluted in 5% DMSO solution, and 5 μL of the compound solution was added to a 384-well plate. The maximum final concentration of the compound is 1 μM, being diluted three times with 10 concentrations.
(§4) 10 μL of kinase solution was added to the 384-well plate and incubated at room temperature for 10 minutes;
(§5) 10 μL of P22 peptide and ATP solution were added to the 384-well plate, and 25 μL of reaction stop buffer was added after a specific time at 28° C.;
(§6) The data was collected in Caliper read and the inhibition rate was calculated according to inhibition rate=(max−conversion)/(max−min)*100, where max is DMSO control, conversion is the reading of the compound treated group, and min is the maximum inhibition control. IC50 value of the compound was calculated with XLfit excel add-in version 5.4.0.8 software.
Method for FGFR2: as §1, §2, §3, §4, §5, §6
Method for FGFR4: as §1, §2, §3, §4, §5, §6

The compound `COc1cc(CCc2cc(NC(=O)c3ccc(N4C[C@@H](C)N[C@@H](C)C4)cc3)n[nH]2)cc(OC)c1` [AZD4547, reference compound] came in with an IC50 in the data set with Hep3B cells of 263 nM.
As a reminder, the AUC is concentration integrated over time. As for `C=CC(=O)Nc1cc(N2CCN(CC(F)(F)F)CC2)ccc1C(=O)Nc1cc(CCc2cc(OC)cc(OC)c2)n[nH]1` [Compound 2, 2-acrylamide-N-(3-(3,5-dimethoxyphenethyl)-1H-pyrazol-5-yl)-4-(4-(2,2,2-trifluoroethyl)piperazin-1-yl) benzamide], the IC50 in the data set with Hep3B cells was 0.8 nM; at FGFR1 (setting [2]), 3.3 nM; against FGFR2, 3.7 nM; against FGFR3, 2.8 nM; at FGFR4 (setting [3]), 3.3 nM. The Cmax in data set [1] was found to be 2580 nM. Further, the AUC in data set [1] stood at 7.52 µM·h.
For the compound `C=CC(=O)Nc1cc(N2CCN(CC(F)F)CC2)ccc1C(=O)Nc1cc(CCc2cc(OC)cc(OC)c2)n[nH]1` [Compound 3, 2-acrylamide-4-(4-(2,2-difluoroethyl)piperazin-1-yl)-N-(3-(3,5-dimethoxyphenethyl)-1H-pyrazol-5-yl)benzamide], the IC50 with Hep3B cells came to 3 nM; on FGFR1, 3.6 nM; at FGFR2 it was 5.3 nM; on FGFR3 it was 4.6 nM; against FGFR4 it was 5.7 nM.
Consider `C=CC(=O)Nc1cc(OCC(F)(F)F)ccc1C(=O)Nc1cc(CCc2cc(OC)cc(OC)c2)n[nH]1` [Compound 5, 2-acrylamido-N-(3-(3,5-dimethoxyphenethyl)-1H-pyrazol-5-yl)-4-(2,2,2-trifluoroethoxy)benzamide], for which the IC50 worked out at 9 nM in the data set with Hep3B cells; 2.7 nM at FGFR1 (setting [2]); 2.7 nM on FGFR2; 2.4 nM against FGFR3; 2.5 nM at FGFR4 (setting [3]).
As for `C=CC(=O)Nc1cc(N2CC(F)(F)C2)ccc1C(=O)Nc1cc(CCc2cc(OC)cc(OC)c2)n[nH]1` [Compound 6, 2-acrylamido-4-(3,3-difluoroazetidin-1-yl)-N-(3-(3,5-dimethoxyphenethyl)-1H-pyrazole-5-yl)benzamide], the IC50 came to 3 nM with Hep3B cells; 2.4 nM at FGFR1 (setting [2]); 2.3 nM against FGFR2; 1.7 nM against FGFR3; 2 nM at FGFR4 (setting [3]).
The like results for `C=CC(=O)Nc1cc(N2CCC(F)(F)CC2)ccc1C(=O)Nc1cc(CCc2cc(OC)cc(OC)c2)n[nH]1` [Compound 7, 2-acrylamido-4-(4,4-difluoropiperidin-1-yl)-N-(3-(3,5-dimethoxyphenethyl)-1H-pyrazol-5-yl)benzamide] were, in that order, 6 nM, 2.1 nM, 3.4 nM, 2.3 nM and 3.2 nM.
The like results for `C=CC(=O)Nc1cc(N2CCC(F)(F)C2)ccc1C(=O)Nc1cc(CCc2cc(OC)cc(OC)c2)n[nH]1` [Compound 8, 2-acrylamido-4-(3,3-difluoropyrrolidin-1-yl)-N-(3-(3,5-dimethoxyphenethyl)-1H-pyrazol-5-yl)benzamide] were, in that order, 8 nM, 2.7 nM, 2.8 nM, 2.3 nM and 2.7 nM.
The like results for `C=CC(=O)Nc1cc(OCCC(F)(F)F)ccc1C(=O)Nc1cc(CCc2cc(OC)cc(OC)c2)n[nH]1` [Compound 9, 2-acrylamido-N-(3-(3,5-dimethoxyphenethyl)-1H-pyrazol-5-yl)-4-(3,3,3-trifluoropropoxy)benzamide] were, in that order, 2 nM, 3.1 nM, 4.4 nM, 4.4 nM and 3.6 nM.
In the case of `C=CC(=O)Nc1cc(N2CCN(CCC(F)(F)F)CC2)c(OC)cc1C(=O)Nc1cc(CCc2cc(OC)cc(OC)c2)n[nH]1` [Compound 10, 2-acrylamido-N-(3-(3,5-dimethoxyphenethyl)-1H-pyrazol-5-yl)-5-methoxy-4-(4-(3,3,3-trifluoropropyl)piperazin-1-yl)benzamide], the IC50 is 3 nM in the data set with Hep3B cells; 5.7 nM on FGFR1 (setting [2]); 6.1 nM against FGFR2; 7.4 nM at FGFR3; 4.4 nM on FGFR4 (setting [3]). Besides, in data set [1], the Cmax came out at 1250 nM. For the same compound, the AUC in data set [1] is 2.41 µM·h.
For `C=CC(=O)Nc1cc(N2CCN(CCC(F)(F)F)C(C)C2)ccc1C(=O)Nc1cc(CCc2cc(OC)cc(OC)c2)n[nH]1` (stereo not shown) [Compound 12, 2-acrylamido-N-(3-(3,5-dimethoxyphenethyl)-1H-pyrazol-5-yl)-4-(3-methyl-4-(3,3,3-trifluoropropyl)piperazin-1-yl)benzamide], the IC50 with Hep3B cells is 0.5 nM; at FGFR1 (setting [2]), 2.7 nM; on FGFR2 it was 4.1 nM; at FGFR3 it was 3 nM; at FGFR4 (setting [3]), 3.9 nM. For the same compound, the Cmax in data set [1] is 663 nM. Further, the AUC in data set [1] stood at 1.42 µM·h.
Take `C=CC(=O)Nc1cc(N(C)CCC(F)(F)F)ccc1C(=O)Nc1cc(CCc2cc(OC)cc(OC)c2)n[nH]1` [Compound 13, 2-acrylamido-N-(3-(3,5-dimethoxyphenethyl)-1H-pyrazol-5-yl)-4-(methyl(3,3,3-trifluoropropyl)amino)benzamide]: the IC50 in the data set with Hep3B cells was determined as 12 nM; at FGFR1 (setting [2]), 3.4 nM; against FGFR2 it was 4.9 nM; on FGFR3, 3.1 nM; at FGFR4 (setting [3]) it was 3.8 nM.
For `C=CC(=O)Nc1cc(N2CCN(CC(F)(F)C(F)(F)F)CC2)ccc1C(=O)Nc1cc(CCc2cc(OC)cc(OC)c2)n[nH]1` [Compound 14, 2-acrylamido-N-(3-(3,5-dimethoxyphenethyl)-1H-pyrazol-5-yl)-4-(4-(2,2,3,3,3-pentafluoropropyl)piperazin-1-yl)benzamide], the IC50 in the data set on Hep3B cells is 7 nM; at FGFR1 (setting [2]) it was 6.1 nM; at FGFR2, 5.9 nM; at FGFR3 it was 5.8 nM; at FGFR4 (setting [3]), 5.9 nM. Further, the Cmax in data set [1] is 344 nM. Moreover, the AUC in data set [1] is 1.15 µM·h.
For the compound `C=CC(=O)Nc1cc(N2CCN(CCC(F)(F)F)CC2)cnc1C(=O)Nc1cc(CCc2cc(OC)cc(OC)c2)n[nH]1` [Compound 15, 3-acrylamido-N-(3-(3,5-dimethoxyphenethyl)-1H-pyrazol-5-yl)-5-(4-(3,3,3-trifluoropropyl)piperazin-1-yl)pyridinecarboxamide], the IC50 in the data set with Hep3B cells came to 12 nM; at FGFR1 (setting [2]), 4.8 nM; at FGFR2, 4.5 nM; on FGFR3, 3.9 nM; at FGFR4 (setting [3]), 4.4 nM.
As to `C=CC(=O)Nc1cc(N2CCN(CCC(F)(F)F)CC2)cc(F)c1C(=O)Nc1cc(CCc2cc(OC)cc(OC)c2)n[nH]1` [Compound 16, 2-acrylamido-N-(3-(3,5-dimethoxyphenethyl)-1H-pyrazol-5-yl)-6-fluoro-4-(4-(3,3,3-trifluoropropyl)piperazin-1-yl)benzamide], the IC50 in the data set on Hep3B cells stood at 0.3 nM.
Turning to `C=CC(=O)Nc1ccccc1C(=O)Nc1cc(CCc2cc(OC)cc(OC)c2)[nH]n1` [Control a, 2-acrylamido-N-(3-(3,5-dimethoxyphenethyl)-1H-pyrazol-5-yl)benzamide, reference compound], the IC50 in the data set on Hep3B cells stood at 5 nM; on FGFR1 (setting [2]) it was 4.5 nM; against FGFR2, 2.2 nM; against FGFR3 it was 1.7 nM. In data set [1], the Cmax was determined as 377 nM. In addition, in data set [1], the AUC was found to be 0.404 µM·h.
